Laboratory results taken from the supplement of paper PMC10307832.

How the values were obtained:
Test in all cases: relative viability (nuclei count vs DMSO), 5 days (fraction); higher = more cells survive
Ibrutinib + Navitoclax = compound: C=CC(=O)N1CCC[C@@H](n2nc(-c3ccc(Oc4ccccc4)cc3)c3c(N)ncnc32)C1 [Ibrutinib] + CC1(C)CCC(c2ccc(Cl)cc2)=C(CN2CCN(c3ccc(C(=O)NS(=O)(=O)c4ccc(N[C@H](CCN5CCOCC5)CSc5ccccc5)c(S(=O)(=O)C(F)(F)F)c4)cc3)CC2)C1 [Navitoclax] (partner 0.5 µM)
In short: (§1)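 For relative viability, nuclei counts in treated wells were divided by those in vehicle wells. Lung cancer cell lines had been pin-tool dosed in 1536-well plates the day after seeding and cultured for 5 days, then fixed and stained in one step (final 0.05% Triton X-100, 1% formaldehyde, 1 ug/ml Hoechst) and imaged at 4×. Doses were one drug alone or a fixed anchor-drug dose plus five library-drug doses (not always all listed) in √10 steps, and values are duplicate-plate medians.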

Ibrutinib + Dasatinib = compound: C=CC(=O)N1CCC[C@@H](n2nc(-c3ccc(Oc4ccccc4)cc3)c3c(N)ncnc32)C1 [Ibrutinib] + Cc1nc(Nc2ncc(C(=O)Nc3c(C)cccc3Cl)s2)cc(N2CCN(CCO)CC2)n1 [Dasatinib] (partner 0.075 µM)
In short: as §1

BMX-IN-1 + OSI-027 = compound: C=CC(=O)Nc1cc(-n2c(=O)ccc3cnc4ccc(-c5ccc(NS(C)(=O)=O)cc5)cc4c32)ccc1C [BMX-IN-1] + COc1cccc2cc(-c3nc([C@H]4CC[C@H](C(=O)O)CC4)n4ncnc(N)c34)[nH]c12 [OSI-027] (partner 0.5 µM)
In short: as §1

PAC-1 + Linsitinib = compound: C=CCc1cccc(/C=N/NC(=O)CN2CCN(Cc3ccccc3)CC2)c1O [PAC-1] + C[C@]1(O)C[C@@H](c2nc(-c3ccc4ccc(-c5ccccc5)nc4c3)c3c(N)nccn32)C1 [Linsitinib] (partner 1 µM)
In short: as §1

Cell Line	relative viability (Ibrutinib + Navitoclax; first compound 0.005 µM)	relative viability (Ibrutinib + Navitoclax; first compound 0.01581 µM)	relative viability (Ibrutinib + Navitoclax; first compound 0.05 µM)	relative viability (Ibrutinib + Navitoclax; first compound 0.1581 µM)	relative viability (Ibrutinib + Dasatinib; first compound 0.005 µM)	relative viability (Ibrutinib + Dasatinib; first compound 0.01581 µM)	relative viability (Ibrutinib + Dasatinib; first compound 0.05 µM)	relative viability (Ibrutinib + Dasatinib; first compound 0.1581 µM)	relative viability (Ibrutinib + Dasatinib; first compound 0.5 µM)	relative viability (BMX-IN-1 + OSI-027; first compound 0.02 µM)	relative viability (BMX-IN-1 + OSI-027; first compound 0.2 µM)	relative viability (BMX-IN-1 + OSI-027; first compound 0.6325 µM)	relative viability (BMX-IN-1 + OSI-027; first compound 2 µM)	relative viability (PAC-1 + Linsitinib; first compound 0.02 µM)	relative viability (PAC-1 + Linsitinib; first compound 0.06325 µM)	relative viability (PAC-1 + Linsitinib; first compound 0.2 µM)	relative viability (PAC-1 + Linsitinib; first compound 2 µM)	relative viability (Ibrutinib + Navitoclax; first compound 0.5 µM)
NCI-H2085	1.1	1.13	1	1.13	0.26	0.254	0.219	0.202	0.216	0.743	0.748	0.696	0.745	0.891	0.936	0.943	1.04	–
HCC-78	0.785	0.746	0.722	0.696	0.309	0.402	0.304	0.312	0.267	0.336	0.372	0.371	0.376	0.565	0.607	0.544	0.467	0.566
NCI-H647	1.09	1.13	1.22	1.05	–	0.164	0.167	0.206	0.174	0.722	0.642	0.736	0.571	1.05	1.19	1.2	0.807	1.1
NCI-H1299	1.07	1.02	1.11	1.07	–	–	–	–	–	–	–	–	–	0.947	0.963	0.953	0.96	1.04
LU99A	0.725	0.684	0.772	0.814	0.514	0.605	0.465	0.556	0.483	0.321	0.289	0.329	0.298	0.562	0.514	0.518	0.489	0.664
A549	1.26	1.2	1.23	1.3	–	–	–	–	–	–	–	–	–	0.527	0.612	0.523	0.583	1.19
HARA	1.17	1.1	1.12	1.15	0.288	0.235	0.223	0.236	0.194	0.403	0.544	0.562	0.457	0.873	0.958	0.851	1.09	0.791
NCI-H1944	0.902	0.985	0.811	0.969	0.21	0.18	0.206	0.178	0.193	0.417	0.405	0.502	0.452	1.17	1.05	1.12	1.06	0.689
LCLC-103H	–	–	–	–	0.496	0.432	0.454	0.489	0.318	0.493	0.55	0.527	0.522	1.04	1.13	1.14	0.98	–
NCI-H1792	0.669	0.694	0.69	0.474	–	0.759	0.755	–	0.685	–	0.823	0.817	0.775	0.648	0.602	0.534	0.579	0.599
Calu-6	0.954	0.746	0.771	0.955	–	–	–	–	–	–	–	–	–	0.826	0.902	–	0.962	0.756
SW 900	–	–	–	–	–	–	0.683	0.554	0.578	0.547	0.643	0.523	0.764	–	–	–	–	–
LOU-NH91	0.601	0.572	0.549	0.585	0.473	0.474	0.485	0.522	0.38	0.717	–	0.772	0.679	0.925	0.964	0.906	0.915	0.407
HCC-366	0.986	0.977	1.06	–	0.734	0.569	0.633	0.538	0.597	1.06	1.14	1.13	1.12	0.587	0.699	0.441	0.772	–
CAL-12T	–	1.16	1.33	1.37	0.363	0.295	0.354	0.475	0.24	0.712	0.665	0.659	0.679	0.925	0.823	0.669	0.808	0.951
NCI-H1355	–	0.904	0.918	0.96	0.527	0.647	0.718	0.623	0.677	0.386	0.393	0.482	0.424	0.74	0.89	0.806	0.803	0.801
ABC-1	–	–	–	–	0.493	–	0.628	0.555	0.633	0.504	0.491	0.655	0.412	0.791	0.746	0.822	1.02	–
NCI-H2405	0.923	0.812	0.731	–	0.232	0.19	0.189	0.206	0.237	0.647	0.63	0.605	0.634	0.949	0.918	0.899	1.08	0.98
NCI-H1648	–	–	–	–	–	–	–	–	–	0.223	0.249	0.265	0.272	–	–	–	–	–
NCI-H650	–	–	–	–	0.408	0.484	0.378	0.491	0.465	0.511	0.508	0.594	0.531	0.887	0.912	0.761	0.676	–
NCI-H2228	0.859	0.838	0.932	0.911	0.584	–	0.553	0.5	0.428	0.595	0.673	0.789	0.529	0.575	0.787	0.603	0.694	0.836
EPLC-272H	–	0.982	1.07	1.28	0.274	0.294	0.284	0.279	0.188	0.262	0.261	0.323	0.314	–	1.14	0.934	1.07	0.694
